These results are taken from patent US20140193831A1, “SEED TRAIT PREDICTION BY ACTIVITY-BASED PROTEIN PROFILING” (GAUTIER SEMENCES, priority 2011, published 2014).

In one assay the test system is diagnostic marker 4. Briefly: Single seed-ABPP of unprimed and primed tomato seeds with MV151 (FIG. 17). The assay is classed as biochemical. To be noted: 4 hours, Tris pH 7.5. The source says: A: Structure of MV151 (see also FIG. 7). This probe consists of a vinylsulfonate (VS) reactive groups, a leucine tripeptide binding group as linker, and a fluorescence bodipy reporter tag (left grey circle) (MV151: Verdoes et al., (2006) Chem. Biol. 13: 1217-1226). B: MV151 was used for detection of a diagnostic marker for primed seeds in tomato. […] Proteins were separated on 14% protein gels and analyzed by scanning for fluorescent proteins (ex 532 nm/em 575 nm) and stained with coomassie. […] This is an Example of successful identification of primed seeds by ABPP of the present invention without need for germination of the seeds.

The subject of a further assay is seed proteins. Nature of the assay: ABPP labelling of a tomato seed extract with four fluorescent probes in parallel (FIG. 2). It counts as biochemical. To be noted: plant seed extract, 2 μM probe, buffers NaOAc pH 5.5 or Tris pH 7.6 with 1 mM DTT.

Turning to `COc1ccc(C2=[N+]3C(=Cc4c(C)c(CCC(=O)NCCCCCC(=O)NCCCCCC(=O)NCCCCCC(=O)N[C@@H](CC(C)C)C(=O)N[C@@H](CC(C)C)C(=O)N[C@H](/C=C/S(C)(=O)=O)CC(C)C)c(C)n4[B-]3(F)F)C=C2)cc1` [MV151], the “seeds in which diagnostic marker 4 is detected” value in the assay with diagnostic marker 4 (primed A1 seeds, 14 of 14, 2 μM probe) is reported as 100%; in the assay with diagnostic marker 4 (unprimed A1 seeds, 4 of 14, 2 μM probe), 36%. Besides, in the assay on seed proteins, the “labelling of seed proteins on fluorescence gel” value is “Robust labelling”.
